In ChEMBL document CHEMBL5543126, “Combinatorial Ubiquitination REal-time PROteolysis (CURE-PROs): A Modular Platform for Generating Reversible, Self-Assembling Bifunctional Targeted Degraders” (J Med Chem, 2024):
Values belong to the molecule of their own block, whether it stands above or below them. The source made the active and inactive calls. The calls are words filed in the database; no cut-off is given here.

Assays:
Type in all cases: cell-based
[1] = target: T1, von Hippel-Lindau disease tumor suppressor/Bromodomain-containing protein 4 (Homo sapiens, UniProt O60885+P40337); assay: (§1) PROTAC activity at BRD4/VHL in human MCF7 cells assessed as induction of BRD4 degradation by measuring residual activity at 100 nM incubated for 24 hrs in presence of 300 nM BRD4 based ligand ((4S)-6-(4-chlorophenyl)-4-(2-(ethylamino)-2-oxoethyl)-1-methyl4Hbenzo[f][1,2,4]triazolo [4,3-a][1,4]diazepin-8-yl)boronic acid by Western blot based Combinatorial Ubiquitination Real-time PROteolysis analysis
[2] = target: T1, von Hippel-Lindau disease tumor suppressor/Bromodomain-containing protein 4; assay: as §1, with “1 uM” for “100 nM”, “of” for “of 300 nM”
[3] = target: T1, von Hippel-Lindau disease tumor suppressor/Bromodomain-containing protein 4; assay: as §1, with “30” for “100”, “of” for “of 300 nM”
[4] = target: T1, von Hippel-Lindau disease tumor suppressor/Bromodomain-containing protein 4; assay: as §1, with “3 uM” for “100 nM”
[5] = target: T1, von Hippel-Lindau disease tumor suppressor/Bromodomain-containing protein 4; assay: as §1, with “reduction in” for “induction of”, “level” for “degradation by measuring residual activity at 100 nM”, “VHL” for “300 nM BRD4”
[6] = target: T1, von Hippel-Lindau disease tumor suppressor/Bromodomain-containing protein 4; assay: as §1, with “1 uM” for “100 nM”, “3 uM” for “300 nM”
[7] = target: T1, von Hippel-Lindau disease tumor suppressor/Bromodomain-containing protein 4; assay: as §1, with “of” for “of 300 nM”
[8] = target: T1, von Hippel-Lindau disease tumor suppressor/Bromodomain-containing protein 4; assay: as §1, with “VHL/BRD4” for “BRD4/VHL”, “degradation” for “degradation by measuring residual activity”, “10 uM measured at 4” for “100 nM incubated for 24”, “of” for “of 300 nM”
[9] = target: T1, von Hippel-Lindau disease tumor suppressor/Bromodomain-containing protein 4; assay: as §1, with “VHL/BRD4” for “BRD4/VHL”, “HEK293” for “human MCF7”, “maximal level of degradation” for “residual activity”, “3 uM measured every 15 mins” for “100 nM incubated”, “of” for “of 300 nM”, “HiBiT” for “Western blot”
[10] = target: T1, von Hippel-Lindau disease tumor suppressor/Bromodomain-containing protein 4; assay: (§2) PROTAC activity at VHL/BRD4 in HEK293 cells assessed as induction of BRD4 degradation by measuring Tmax at 0.3 uM measured every 15 mins for 24 hrs in presence of VHL based ligand (2S,4R)-1-((S)-2-(2,3-dihydroxybenzamido)-3,3-dimethylbutanoyl)-4-hydroxy-N-(4-(4-methylthiazol-5-yl)benzyl)pyrrolidine-2-carboxamide by HiBiT based Combinatorial Ubiquitination Real-time PROteolysis analysis
[11] = target: T1, von Hippel-Lindau disease tumor suppressor/Bromodomain-containing protein 4; assay: (§3) PROTAC activity at BRD4/VHL in human MCF7 cells assessed as induction of BRD4 degradation by measuring residual activity at 10 uM incubated for 24 hrs in presence of 100 nM VHL based ligand (2S,4R)-1-((S)-2-(2,3-dihydroxybenzamido)-3,3-dimethylbutanoyl)-4-hydroxy-N-(4-(4-methylthiazol-5-yl)benzyl)pyrrolidine-2-carboxamide by Western blot based Combinatorial Ubiquitination Real-time PROteolysis analysis
[12] = target: T1, von Hippel-Lindau disease tumor suppressor/Bromodomain-containing protein 4; assay: as §3, with “100 nM” for “10 uM”, “1 uM” for “100 nM”
[13] = target: T1, von Hippel-Lindau disease tumor suppressor/Bromodomain-containing protein 4; assay: as §3, with “3” for “10”, “1 uM” for “100 nM”
[14] = target: T1, von Hippel-Lindau disease tumor suppressor/Bromodomain-containing protein 4; assay: as §3, with “30 nM” for “10 uM”, “300” for “100”
[15] = target: T1, von Hippel-Lindau disease tumor suppressor/Bromodomain-containing protein 4; assay: as §2, with “degradation rate” for “Tmax”
[16] = target: T1, von Hippel-Lindau disease tumor suppressor/Bromodomain-containing protein 4; assay: as §3, with “10 uM” for “100 nM”
[17] = target: T1, von Hippel-Lindau disease tumor suppressor/Bromodomain-containing protein 4; assay: as §3, with “3” for “10”, “10 uM” for “100 nM”
[18] = target: T1, von Hippel-Lindau disease tumor suppressor/Bromodomain-containing protein 4; assay: as §3, with “300 nM” for “10 uM”, “3 uM” for “100 nM”
[19] = target: T1, von Hippel-Lindau disease tumor suppressor/Bromodomain-containing protein 4; assay: as §3, with “1” for “10”, “300” for “100”
[20] = target: T1, von Hippel-Lindau disease tumor suppressor/Bromodomain-containing protein 4; assay: as §2, with “maximal level of degradation” for “Tmax”, “1” for “0.3”
[21] = target: T1, von Hippel-Lindau disease tumor suppressor/Bromodomain-containing protein 4; assay: as §3, with “1” for “10”, “1 uM” for “100 nM”
[22] = target: T1, von Hippel-Lindau disease tumor suppressor/Bromodomain-containing protein 4; assay: as §3, with “VHL/BRD4” for “BRD4/VHL”, “degradation” for “degradation by measuring residual activity”, “measured at 4” for “incubated for 24”, “of” for “of 100 nM”
[23] = target: Protein cereblon/Bromodomain-containing protein 4 (Homo sapiens) (UniProt O60885+Q96SW2); assay: PROTAC activity at BRD4/CRBN in human HeLa cells assessed as induction of BRD4 degradation at 10 uM incubated for 24 hrs in presence of CRBN based ligand N-((2-(2,6-dioxopiperidin-3-yl)-1,3-dioxoisoindolin-4-yl)methyl)-2,3-dihydroxybenzamide by Western blot analysis based Combinatorial Ubiquitination Real-time PROteolysis analysis
[24] = target: T1, von Hippel-Lindau disease tumor suppressor/Bromodomain-containing protein 4; assay: as §3, with “100 nM” for “10 uM”, “300” for “100”

T1 sequence (P40337 whole entry, looked up, other chains not shown): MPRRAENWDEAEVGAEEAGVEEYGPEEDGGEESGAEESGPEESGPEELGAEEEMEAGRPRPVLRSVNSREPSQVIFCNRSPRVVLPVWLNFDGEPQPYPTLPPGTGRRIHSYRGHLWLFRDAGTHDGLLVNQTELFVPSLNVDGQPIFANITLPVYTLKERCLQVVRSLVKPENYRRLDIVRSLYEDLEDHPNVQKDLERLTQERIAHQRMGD
Sequence of Protein cereblon/Bromodomain-containing protein 4 (Homo sapiens) (Q96SW2 whole entry, looked up, other chains not shown): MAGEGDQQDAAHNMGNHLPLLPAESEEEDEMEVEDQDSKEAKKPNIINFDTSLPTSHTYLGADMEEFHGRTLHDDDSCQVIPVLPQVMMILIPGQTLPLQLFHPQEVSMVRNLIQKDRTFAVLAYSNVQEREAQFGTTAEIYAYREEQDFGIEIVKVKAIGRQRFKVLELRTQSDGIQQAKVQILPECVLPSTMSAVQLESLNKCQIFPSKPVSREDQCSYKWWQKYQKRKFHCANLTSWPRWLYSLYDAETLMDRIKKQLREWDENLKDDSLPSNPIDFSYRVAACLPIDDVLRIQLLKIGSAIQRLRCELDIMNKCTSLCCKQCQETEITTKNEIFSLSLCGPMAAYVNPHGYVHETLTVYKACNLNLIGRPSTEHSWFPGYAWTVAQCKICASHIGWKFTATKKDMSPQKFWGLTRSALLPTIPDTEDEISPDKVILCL

Activity [1]: 77%
Activity [2]: 64%
Activity [3]: 91%
Activity [4]: 39%
Activity [5]: Active
DC50 [5]: 0.358 µM
Activity [6]: 22%
Activity [7]: 89%
Activity [8]: 100%
Emax [9]: 93%
SMILES: Cc1ncsc1-c1ccc(CNC(=O)[C@@H]2C[C@@H](O)CN2C(=O)[C@@H](NC(=O)c2cccc(O)c2O)C(C)(C)C)cc1

SMILES: CCNC(=O)C[C@@H]1N=C(c2ccc(Cl)cc2)c2cc(B(O)O)ccc2-n2c(C)nnc21
Tmax [10]: 7.75 h
Activity [11]: 55%
Activity [12]: 101%
Activity [13]: 32%
Activity [14]: 104%
Activity [15]: 0.144 h⁻¹
Activity [16]: 6%
Activity [17]: 16%
Activity [18]: 37%
Activity [19]: 48%
Emax [20]: 80%
Activity [21]: 35%
Activity [22]: 100%
Activity [23]: inactive
Activity [24]: 77%
